Read-outs that look alike come from different tables or passages of the source.
Columns and labels:
add A-riboswitch = assay: Dual promoter construct, eGFP expression by fluorescence; type: cell-based, Escherichia coli
Text: (§1) Here we show how two mutually orthogonal riboswitches can be independently controlled by varying concentrations of two distinct synthetic inducers, allowing dynamic expression landscapes to be accessed and optimal co-expression stoichiometries to be established. In the first instance a dual promoter system was constructed, in the pBKS vector with the orthogonal M6 riboswitch selected previously (Dixon et al Proc Natl Acad Sci USA 2010, 107, 2830] or Dixon et al Angew. Chem. 2012, 51, 3620-3624. controlling translation of the red fluorescent protein DsRed [Bevis, Nat. Biotech. 20:83 (2002)] in response to the ligand ammeline (Am). The bacteriophage lambda tR1 transcription terminator [Graham. NAR, Vol. 32:3093 (2004] was inserted downstream of DsRed gene, followed by a second lac promoter and the 2-aminopurine (2AP)-responsive parental add A-riboswitch [Dixon et al Proc Natl Acad Sci USA 2010, 107, 2830 & Mandal, Nat Struct Mol Biol 11: 29 (2004)] controlling translation of the green fluorescent protein eGFP (FIG. 34A). Escherichia coli was transformed with this dual promoter construct and expression of DsRed and eGFP genes, was then determined by fluorescence as function of inducer concentrations.
(§2) To explore the capacity of the dual promoter system for controlling the differential expression of DsRed and eGFP, multi-dosage matrix expression analysis was performed where induction factors (IF), the ratio of the maximum ligand-induced protein expression over the basal protein expression level, are determined for a full range of inducer concentrations (FIGS. 34A & B).
(§3) A number of reasons could possibly account for this. Firstly, ribosomal read-through could result in a more efficient initiation of translation at the eGFP RBS. […] Titration of the M6 selective inducer Am (0→250 μM) against the dual promoter in either the absence or presence 2AP (0 or 250 μM) gives dose-dependent protein expression curves for DsRed that are very similar, with maximum normalized red fluorescence (fu/OD620) of 1.1×10^5 and 1.0×10^5 respectively (FIG. 36A). […]

[1] = system: intergenic add-A riboswitch; assay: Operon construct, eGFP expression by fluorescence; type: cell-based, Escherichia coli
Text: In a second series of experiments, a synthetic operon was designed with one promoter driving transcription of a single bicistronic mRNA comprising the M6 riboswitch regulating DsRed, and an intergenic add-A riboswitch controlling a downstream eGFP gene (FIG. 35A). […] Moreover, the maximum DsRed induction factor was 21.2, which is also more than 2-fold higher than the dual promoter system (FIG. 35B). The organisation of M6-DsRed in an operon, permits differential control, but also gives rise to significant amplification of the dynamic range of gene expression (IF), compared with the dual promoter system. […] In this case, eGFP output was clearly dependent on both ligands. A synergistic effect of the two ligands is observed in the induction factor matrix analysis, across a full range of Am and 2AP concentrations (FIG. 35C), with the expression landscape reaching a maximum induction factor of 24.1 in the presence of the highest concentrations of both inducers. […] Similarly no cross-talk is observed with the dual promoter system described above.
(§4) A number of reasons could possibly account for this. Firstly, ribosomal read-through could result in a more efficient initiation of translation at the eGFP RBS. Secondly, riboswitches that control gene expression through changing the accessibility of the RBS (like addA), may also rely on Rho-dependent termination of transcription [Roth, Annu. Rev. Biochem. 78:305 (2009) & Peters Proc. Natl. Acad. Sci. USA 106:15406 (2009)]. In the case of the operon, when both riboswitches are activated by Am and 2AP, ribosomes will be recruited at both RBSs and will occupy the full length of the transcript, blocking Rho binding [Epshtein, Nature 463:245 (2010)]. […] Titration of the M6 selective inducer Am (0→250 μM) against the dual promoter in either the absence or presence 2AP (0 or 250 μM) gives dose-dependent protein expression curves for DsRed that are very similar, with maximum normalized red fluorescence (fu/OD620) of 1.1×10^5 and 1.0×10^5 respectively (FIG. 36A). […]

M6 riboswitch [2] = assay: Dual promoter construct, DsRed expression by fluorescence; type: cell-based, Escherichia coli; settings: for maximum normalized red fluorescence: Am 0→250 μM
Text: as §1, §2
as §4, with “(2010)]. Consequently the levels of full-length mRNA transcripts in the cell will be higher, than if either or both ligands are absent. Finally protection of the full-length transcript from nuclease degradation by actively translating ribosomes [Deana, Genes Dev.” for “(2010)].”

M6 = settings: earlier in vitro studies; cited from earlier work
M6″ riboswitch aptamer = assay: Isothermal titration calorimetry with M6″ aptamer; type: binding
Text: (§5) Re-engineering the adenine responsive add A-riboswitch (addA) from Vibrio vulnificus (FIGS. 27A & B) [Dixon et al Proc Natl Acad Sci USA 2010, 107, 2830].

M6″ riboswitch [3] = system: M6″ riboswitch
Description: (§6) Expression is induced using IPTG (0.5 mM) and increasing concentrations of A43 (respectively 0, 5, 10, 25, 50, 100, 250 uM) shown in the third to eighth columns.

M6″ riboswitch [4] = assay: M6″-eGFP construct, GFP expression; type: cell-based, E. coli
Text: as §5
In contrast, the genetic construct of the invention comprises a lac promoter/operator upstream of a 2nd generation riboswitch M6″-eGFP the lac promoter/operator and riboswitch respectively providing direct control of the expression of GFP via transcriptional and translational control.
Both the comparator construct and the genetic construct of the invention were provided on high copy plasmids in Top 10F′.

[5] = system: addA(wt) riboswitch aptamer; assay: Isothermal titration calorimetry with AddA(wt) aptamer; type: binding, Vibrio vulnificus; settings: ITC, FIG. 59
Text: Improved 2nd generation ligands have been discovered both in terms of in vivo and in vitro binding affinity.

M6″ riboswitch [6] = assay: T7 RNA polymerase expression under M6″ riboswitch control (spacer constructs); settings: for regulation upon addition of IPTG: IPTG 0.5 mM
Description: as §6

AddA riboswitch = assay: addA-eGFP construct, GFP expression; type: cell-based, E. coli
Text: In the control constructs GFP expression is controlled directly by a lac promoter/operator alone. In contrast, in the gene constructs of the invention GFP expression is controlled by both a lac promoter/operator, and a riboswitch. In this arrangement the lac promoter provides transcriptional control of expression, and the riboswitch provides translational control. […] In this example, the first generation riboswitch comprises AddA (the ligand for which is adenine), and the second generation riboswitch comprises M6″ (the ligand for which is A43).
GFP induction factors (left axis indicated by the green bars) and absolute normalized GFP fluorescence signal (right axis) in the absence of inducer (open shape) and in the presence of inducer (closed shape).

M6 riboswitch [7] = assay: Operon construct, DsRed expression by fluorescence; type: cell-based, Escherichia coli
Text: In a second series of experiments, a synthetic operon was designed with one promoter driving transcription of a single bicistronic mRNA comprising the M6 riboswitch regulating DsRed, and an intergenic add-A riboswitch controlling a downstream eGFP gene (FIG. 35A). […] Moreover, the maximum DsRed induction factor was 21.2, which is also more than 2-fold higher than the dual promoter system (FIG. 35B). The organisation of M6-DsRed in an operon, permits differential control, but also gives rise to significant amplification of the dynamic range of gene expression (IF), compared with the dual promoter system. […] In this case, eGFP output was clearly dependent on both ligands. […]
as §3

add A = settings: earlier in vitro studies; cited from earlier work
lac promoter/operator = assay: Control lac P/O construct, GFP expression; type: cell-based, E. coli
Text: FIGS. 52 and 53 illustrate the increased dynamic regulation of expression of a gene of interest (here exemplified by green fluorescent protein) that can be achieved using gene constructs in accordance with the present invention, as compared to comparator (control) constructs. In the control constructs GFP expression is controlled directly by a lac promoter/operator alone. In contrast, in the gene constructs of the invention GFP expression is controlled by both a lac promoter/operator, and a riboswitch. In this arrangement the lac promoter provides transcriptional control of expression, and the riboswitch provides translational control. FIGS. 52 and 53 respectively show data generated by gene constructs of the invention comprising first and second generation riboswitches (referred to respectively as “1st Generation” and “2nd Generation” constructs) when present on high copy plasmids in E. coli Top10F′. In this example, the first generation riboswitch comprises AddA (the ligand for which is adenine), and the second generation riboswitch comprises M6″ (the ligand for which is A43). […]
The induction factor represents the degree to which gene expression is controlled, and is determined from the ratio of the maximum induced protein expression over the basal protein expression level. […]

M6C″ riboswitch = assay: M6C″-eGFP riboswitch-reporter construct, gene expression; type: cell-based, E. coli
Text: as §5

M6C″ riboswitch aptamer = assay: Isothermal titration calorimetry with M6C″ aptamer; type: binding; settings: ITC, M6C″ aptamer domain
Text: as §5

Structure (SMILES): Nc1ncc2[nH]cnc2n1 [2AP, 2-aminopurine]
- induction factor, eGFP (add A-riboswitch; increasing 2AP): 11.3
- maximum eGFP levels (add A-riboswitch; unaffected by Am): ca. 55×10^6 fu/OD620
- output, eGFP ([1]; 2AP in the presence of Am (250 μM)): 25.9×10^6 fu/OD620
- maximum induction factor, eGFP ([1]; highest concentrations of both inducers (Am and 2AP)): 24.1
- maximum output, eGFP ([1]; titration of 2AP alone): 14.8×10^6 fu/OD620
- effect upon DsRed induction (M6 riboswitch [2]; simultaneous increase in 2AP): essentially no effect
- binding interaction (M6): no binding interaction

Structure (SMILES): Nc1nc(N)c2cncnc2n1 [A43, pyrimido[4,5-d]pyrimidine-2,4-diamine]
- Kd (M6″ riboswitch aptamer; isothermal titration calorimetry, FIG. 59, read-out: Kd): 189 nM
- dynamic range of control (max/un-induced) (M6″ riboswitch [3]; 105 nt spacer, IPTG (0.5 mM) plus A43 (250 uM)): 134 fold
- induction factor above IPTG expression (M6″ riboswitch [3]; sp120): up to 12 fold
- maximum eGFP expression compared with WT (M6″ riboswitch [4]; eGFP expression assay, FIG. 58): exceeds that of the WT (adddA) with adenine
- induction of gene expression (M6″ riboswitch [4]; in E. coli): 12 fold
- induction of gene expression (M6″ riboswitch [4]; in combination with lac promoter/operator, FIG. 53): > 400 fold
- induction factor (M6″ riboswitch [4]; maximum induced over basal, IPTG plus A43): ~450
- affinity [5]: no affinity
- induction of T7 RNA polymerase (blot) (M6″ riboswitch [6]; A43 50, 100, 250, 1000 μM, lac I forward or reverse, FIG. 48): dose-dependent
- regulation of T7RNAP (western blot) (M6″ riboswitch [6]; pTTv9, A43 2→250 uM, absence and presence of A1 (250 uM)): dose dependent regulation

Structure (SMILES): Nc1nc(N)c2nccnc2n1 [A44, 2,4-Diaminopteridine]
- Kd (M6″ riboswitch aptamer; ITC, FIG. 60, read-out: in vitro binding affinity): ~2000 nM

Structure (SMILES): Nc1nc(N)[nH]c(=O)n1 [Am, ammeline]
- effect upon induction of eGFP expression (add A-riboswitch; changes in Am concentration): no effect
- Kd (M6″ riboswitch aptamer; ITC, M6″ aptamer domain, read-out: Kd): 1000 to 1200 nM
- response of riboswitch to ligand (AddA riboswitch): does not respond
- maximum DsRed induction factor (M6 riboswitch [7]): 21.2
- maximum output, DsRed expression (M6 riboswitch [7]; Am 0→250 μM, presence or absence of 2AP (0 or 250 μM)): 2.9×10^6 fu/OD620
- maximum normalized red fluorescence (M6 riboswitch [2]; absence of 2AP): 1.1×10^5 fu/OD620
- maximum normalized red fluorescence (M6 riboswitch [2]; presence of 2AP 250 μM): 1.0×10^5 fu/OD620
- maximum induction factor, DsRed (M6 riboswitch [2]; increasing Am, co-administration of 2-AP): 9.3
- binding interaction (add A): no binding interaction

Structure (SMILES): CC(C)S[C@@H]1O[C@H](CO)[C@H](O)[C@H](O)[C@H]1O [IPTG]
- control +/−IPTG (M6″ riboswitch [4]; riboswitch containing construct, column 2, no riboswitch inducer): 40 fold
- regulation upon addition of IPTG (M6″ riboswitch [6]; sp105): 44 fold
- regulation upon addition of IPTG (M6″ riboswitch [6]; sp120): ~1 fold
- induction factor (control +/−IPTG) (lac promoter/operator): 4

Structure (SMILES): Nc1ncnc2nc[nH]c12 [adenine]
- response of riboswitch to ligand (M6C″ riboswitch): neither responds
- affinity (M6″ riboswitch aptamer; ITC, M6″ aptamer domain): no affinity
- response of riboswitch to ligand (M6″ riboswitch [4]; M6″): neither responds
- affinity (M6C″ riboswitch aptamer): no affinity

Structure (SMILES): Nc1ncnc(=O)[nH]1 [compound 3, azacytosine]
- response of riboswitch to ligand (AddA riboswitch): does not respond
- Kd (M6C″ riboswitch aptamer): 1000 to 1200 nM

Reference: patent US20140213779A1, “RIBOSWITCHES” (THE UNIVERSITY OF MANCHESTER, priority 2011, published 2014)
